# Legend:
# Format in all cases: in vivo
# Veronica persica (VERPE) = test: Post-emergence herbicidal action, greenhouse pot test
# Method in brief: (§1)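 Activity was scored by eye about 3 weeks after treatment against untreated plants, where 100% means dead plants and 0% means no difference. Plants at the one-leaf stage received a foliar spray of WP or EC formulations in water plus 0.5% additive (600 l/ha, up to 20 g/ha). Plants were grown in sandy loam pots in a greenhouse for 2–3 weeks before spraying.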
# Stellaria media (STEME) = test: as above
# Method in brief: as §1
# [1] = tested on: Polygonum convolvulus (POLCO); test: as above
# Method in brief: as §1
# [2] = tested on: Amaranthus retroflexus (AMARE); test: as above; settings: rated visually after about 3 weeks vs untreated controls, 100% = plants have died
# Method in brief: as §1
# Viola tricolor (VIOTR) = test: as above
# Method in brief: as §1
# [3] = tested on: Abutilon theophrasti (ABUTH); test: as above; settings: rated visually after about 3 weeks vs untreated controls, 100% = plants have died
# Method in brief: as §1
# [4] = tested on: Pharbitis purpurea (PHBPU); test: as above
# Method in brief: as §1
# Brassica napus (BRSNW) = test: Post-emergence crop plant compatibility, greenhouse pot test; settings: 1.25 g/ha, vs untreated controls
# Method in brief: (§2)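 Values are visual % damage versus untreated controls (100% = plants died) about 3 weeks after treatment. Plants in sandy loam were sprayed at the one-leaf stage, 2–3 weeks after sowing, with aqueous WP/EC preparations plus 0.5% additive at 600 l/ha; a/b/c mark different dose levels.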
# Glycine max (GLXMA) = test: as above; settings: 1.25 g/ha
# Method in brief: as §2
# [5] = tested on: Triticum aestivum (TRZAS); test: as above; settings: vs untreated controls
# Method in brief: as §2
# [6] = tested on: Matricaria inodora (MATIN); test: Post-emergence herbicidal action, greenhouse pot test (also comparative test C)
# Method in brief: (§3)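 Green parts of one-leaf-stage plants are sprayed at 600 l/ha with formulated compound plus 0.5% additive, then kept under optimum greenhouse conditions for about 3 weeks. Damage is scored visually, where 100% means dead plants and 0% means no difference from controls.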
# [7] = tested on: Alopecurus myosuroides (ALOMY); test: as above; settings: for Post-emergence action at 20 g/ha against ALOMY in % / Post-emergence action at 5 g/ha against ALOMY in %: rated visually after about 3 weeks vs untreated controls, 100% = plants have died
# Method in brief: as §3
# Setaria viridis (SETVI) = test: as above; settings: for Post-emergence action against SETVI: 20 g/ha
# Method in brief: as §3
# [8] = tested on: Echinochloa crus-galli (ECHCG); test: as above
# Method in brief: as §3
# Oryza sativa (ORYSA) = test: Post-emergence crop plant compatibility, greenhouse pot test (also comparative test C); settings: for Post-emergence action against ORYSA (crop plant compatibility): vs untreated controls
# Method in brief: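 Visual damage versus untreated plants (0% = like control, 100% = plants died) was scored about 3 weeks after a post-emergence spray in greenhouse pots. Treatment: one-leaf stage, WP or EC in water at 600 l/ha with 0.5% additive; a/b/c mark different dosages on the same crop.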
# Avena fatua (AVEFA) = test: Post-emergence herbicidal action, greenhouse pot test; settings: 20 g/ha, rated visually after about 3 weeks vs untreated controls, 100% = plants have died
# Method in brief: as §1
# Lolium rigidum (LOLRI) = test: as above; settings: dosage 20 g/ha
# Method in brief: as §1
# Zea mays (ZEAMX) = test: Post-emergence crop plant compatibility, greenhouse pot test; settings: 1.25 g/ha, vs untreated controls
# Method in brief: as §2
# [9] = application rate of 5 g or less per hectare, tables C1 to C4
# [10] = comparative test C, application rate 1.25 g/ha
structure (smiles),measurement,setting,value
CC(Oc1ccccc1Sc1cc(-n2c(=O)cc(C(F)(F)F)n(C)c2=O)c(F)cc1Cl)C(=O)OCC1CCCO1 (mixture of isomers) [I.2-71],Post-emergence action against VERPE,Veronica persica (VERPE); 1.25 g/ha,100%
same,Post-emergence action against VERPE,Veronica persica (VERPE); 5 g/ha,100%
same,Post-emergence action against VERPE,Veronica persica (VERPE); 20 g/ha,100%
same,Post-emergence action against STEME,Stellaria media (STEME); 5 g/ha,100%
same,Post-emergence action against STEME,Stellaria media (STEME); 20 g/ha,100%
same,Post-emergence action against POLCO in %,[1]; dosage 5 g/ha,100%
same,Post-emergence action against POLCO in %,[1]; dosage 20 g/ha,100%
same,Post-emergence action at 1.25 g/ha against AMARE in %,[2],100%
same,Post-emergence action at 5 g/ha against AMARE in %,[2],100%
same,Post-emergence action at 20 g/ha against AMARE in %,[2],100%
same,Post-emergence action against VIOTR,Viola tricolor (VIOTR); 1.25 g/ha,100%
same,Post-emergence action against VIOTR,Viola tricolor (VIOTR); 5 g/ha,100%
same,Post-emergence action against VIOTR,Viola tricolor (VIOTR); 20 g/ha,100%
same,Post-emergence action at 5 g/ha against ABUTH in %,[3],100%
same,Post-emergence action at 20 g/ha against ABUTH in %,[3],100%
same,Post-emergence action against PHBPU in %,[4]; dosage 1.25 g/ha,80%
same,Post-emergence action against PHBPU in %,[4]; dosage 5 g/ha,100%
same,Post-emergence action against PHBPU in %,[4]; dosage 20 g/ha,100%
same,Post-emergence action against BRSNW (crop plant compatibility),Brassica napus (BRSNW),10%
same,Post-emergence action against GLXMA in %,Glycine max (GLXMA),10%
same,Post-emergence action against TRZAS (crop plant compatibility),[5]; 1.25 g/ha,20%
same,Post-emergence action against TRZAS (crop plant compatibility),[5]; 5 g/ha,20%
same,Post-emergence action against MATIN in %,[6]; dosage 5 g/ha,80%
same,Post-emergence action against MATIN in %,[6]; dosage 20 g/ha,90%
same,Post-emergence action at 20 g/ha against ALOMY in %,[7],80%
same,Post-emergence action against SETVI,Setaria viridis (SETVI),100%
same,Post-emergence action against SETVI in %,Setaria viridis (SETVI); dosage 1.25 g/ha,90%
same,Post-emergence action against SETVI in %,Setaria viridis (SETVI); dosage 5 g/ha,100%
same,Post-emergence action against ECHCG in %,[8]; dosage 20 g/ha,80%
same,Post-emergence action against ORYSA (crop plant compatibility),Oryza sativa (ORYSA); 1.25 g/ha,20%
same,Post-emergence action against ORYSA (crop plant compatibility),Oryza sativa (ORYSA); 5 g/ha,20%
Cn1c(C(F)(F)F)cc(=O)n(-c2cc(Oc3ccccc3OCC(=O)OCc3ccccn3)c([N+](=O)[O-])cc2F)c1=O [I.6-276],Post-emergence action at 20 g/ha against AVEFA in %,Avena fatua (AVEFA),80%
same,Post-emergence action against VERPE,Veronica persica (VERPE); 5 g/ha,100%
same,Post-emergence action against VERPE,Veronica persica (VERPE); 20 g/ha,100%
same,Post-emergence action against POLCO in %,[1]; dosage 20 g/ha,100%
same,Post-emergence action at 1.25 g/ha against AMARE in %,[2],100%
same,Post-emergence action at 5 g/ha against AMARE in %,[2],100%
same,Post-emergence action at 20 g/ha against AMARE in %,[2],100%
same,Post-emergence action against LOLRI in %,Lolium rigidum (LOLRI),90%
same,Post-emergence action against VIOTR,Viola tricolor (VIOTR); 1.25 g/ha,100%
same,Post-emergence action against VIOTR,Viola tricolor (VIOTR); 5 g/ha,100%
same,Post-emergence action against VIOTR,Viola tricolor (VIOTR); 20 g/ha,100%
same,Post-emergence action at 1.25 g/ha against ABUTH in %,[3],100%
same,Post-emergence action at 5 g/ha against ABUTH in %,[3],100%
same,Post-emergence action at 20 g/ha against ABUTH in %,[3],100%
same,Post-emergence action against PHBPU in %,[4]; dosage 1.25 g/ha,100%
same,Post-emergence action against PHBPU in %,[4]; dosage 5 g/ha,100%
same,Post-emergence action against PHBPU in %,[4]; dosage 20 g/ha,100%
same,Post-emergence action against GLXMA in %,Glycine max (GLXMA),20%
same,Post-emergence action against TRZAS (crop plant compatibility),[5]; 1.25 g/ha,10%
same,Post-emergence action against TRZAS (crop plant compatibility),[5]; 5 g/ha,10%
same,Post-emergence action against ZEAMX (crop plant compatibility),Zea mays (ZEAMX),10%
same,Post-emergence action against MATIN in %,[6]; dosage 5 g/ha,100%
same,Post-emergence action against MATIN in %,[6]; dosage 20 g/ha,100%
same,Post-emergence action at 5 g/ha against ALOMY in %,[7],80%
same,Post-emergence action at 20 g/ha against ALOMY in %,[7],100%
same,Post-emergence action against SETVI,Setaria viridis (SETVI),100%
same,Post-emergence action against SETVI in %,Setaria viridis (SETVI); dosage 1.25 g/ha,100%
same,Post-emergence action against SETVI in %,Setaria viridis (SETVI); dosage 5 g/ha,100%
same,Post-emergence action against ECHCG in %,[8]; dosage 5 g/ha,90%
same,Post-emergence action against ECHCG in %,[8]; dosage 20 g/ha,100%
same,Post-emergence action against ORYSA (crop plant compatibility),Oryza sativa (ORYSA); 1.25 g/ha,0%
same,Post-emergence action against ORYSA (crop plant compatibility),Oryza sativa (ORYSA); 5 g/ha,10%
same,Post-emergence action against ORYSA in %,"Oryza sativa (ORYSA); 20 g/ha, crop plant compatibility",20%
Cn1c(C(F)(F)F)cc(=O)n(-c2cc(Oc3ccccc3OCC(=O)OC3COC3)c(Cl)cc2F)c1=O [I.7-115],Post-emergence action at 20 g/ha against AVEFA in %,Avena fatua (AVEFA),100%
same,Post-emergence action against VERPE,Veronica persica (VERPE); 1.25 g/ha,100%
same,Post-emergence action against VERPE,Veronica persica (VERPE); 5 g/ha,100%
same,Post-emergence action against VERPE,Veronica persica (VERPE); 20 g/ha,100%
same,Post-emergence action against POLCO in %,[1]; dosage 5 g/ha,100%
same,Post-emergence action against POLCO in %,[1]; dosage 20 g/ha,100%
same,Post-emergence action at 1.25 g/ha against AMARE in %,[2],100%
same,Post-emergence action at 5 g/ha against AMARE in %,[2],100%
same,Post-emergence action at 20 g/ha against AMARE in %,[2],100%
same,Post-emergence action against VIOTR,Viola tricolor (VIOTR); 1.25 g/ha,100%
same,Post-emergence action against VIOTR,Viola tricolor (VIOTR); 5 g/ha,100%
same,Post-emergence action against VIOTR,Viola tricolor (VIOTR); 20 g/ha,100%
same,Post-emergence action at 1.25 g/ha against ABUTH in %,[3],80%
same,Post-emergence action at 5 g/ha against ABUTH in %,[3],100%
same,Post-emergence action at 20 g/ha against ABUTH in %,[3],100%
same,Post-emergence action against PHBPU in %,[4]; dosage 1.25 g/ha,100%
same,Post-emergence action against PHBPU in %,[4]; dosage 5 g/ha,100%
same,Post-emergence action against PHBPU in %,[4]; dosage 20 g/ha,100%
same,Post-emergence action against BRSNW (crop plant compatibility),Brassica napus (BRSNW),20%
same,Post-emergence action against TRZAS (crop plant compatibility),[5]; 1.25 g/ha,0%
same,Post-emergence action against ZEAMX (crop plant compatibility),Zea mays (ZEAMX),20%
same,herbicidal efficacy against MATIN by comparison with literature compound a-17 / 3-14,[6]; [9],distinct improvement in herbicidal efficacy
same,MATIN (efficacy in %),[6]; [10],100%
same,Post-emergence action against MATIN in %,[6]; dosage 1.25 g/ha,100%
same,Post-emergence action against MATIN in %,[6]; dosage 5 g/ha,100%
same,Post-emergence action against MATIN in %,[6]; dosage 20 g/ha,100%
same,Post-emergence action at 5 g/ha against ALOMY in %,[7],100%
same,Post-emergence action at 20 g/ha against ALOMY in %,[7],100%
same,herbicidal efficacy against ALOMY by comparison with literature compound a-17 / 3-14,[7]; [9],distinct improvement in herbicidal efficacy
same,Post-emergence action against SETVI,Setaria viridis (SETVI),100%
same,herbicidal efficacy against SETVI by comparison with literature compound a-17 / 3-14,Setaria viridis (SETVI); [9],distinct improvement in herbicidal efficacy
same,SETVI (efficacy in %),Setaria viridis (SETVI); [10],100%
same,Post-emergence action against SETVI in %,Setaria viridis (SETVI); dosage 1.25 g/ha,100%
same,Post-emergence action against SETVI in %,Setaria viridis (SETVI); dosage 5 g/ha,100%
same,Post-emergence action at 1.25 g/ha against ECHCG in %,"[8]; 1.25 g/ha, rated visually after about 3 weeks vs untreated controls, 100% = plants have died",100%
same,herbicidal efficacy against ECHCG by comparison with literature compound a-17 / 3-14,[8]; [9],distinct improvement in herbicidal efficacy
same,ECHCG (efficacy in %),[8]; [10],100%
same,Post-emergence action against ECHCG in %,[8]; dosage 5 g/ha,100%
same,Post-emergence action against ECHCG in %,[8]; dosage 20 g/ha,100%
same,Post-emergence action against ORYSA (crop plant compatibility),Oryza sativa (ORYSA); 1.25 g/ha,0%
same,compatibility with respect to the crop plant Oryza sativa (ORYSA) by comparison with literature compound a-17 / 3-14,"Oryza sativa (ORYSA); application rate of 1.25 g per hectare, table C5",distinct improvement in compatibility
same,ORYSA (efficacy in %),"Oryza sativa (ORYSA); comparative test C, application rate 1.25 g/ha, crop plant compatibility",0%

# Source: patent US20240025862A1, “SUBSTITUTED N-PHENYLURACILS AND SALTS THEREOF, AND USE THEREOF AS HERBICIDAL ACTIVE SUBSTANCES” (Bayer Aktiengesellschaft, priority 2020, published 2024)
